Test results: patent US10947216B2, “Amide compounds and method for making and using” (Rigel Pharmaceuticals, Inc., priority 2016, dated 2021)
Counter-ions that a name gives are not always drawn. Like-named read-outs stand apart in the source and are kept apart here.

What was measured:
[1] = tested on: IL-23p19; test: LPS Induced IL23p19 in THP-1 Cells (with IFNγ Primed) Assay; assay type: cell-based, human; details: Homo sapiens, IFNγ (50 ng/mL) primed, 1 hour compound pre-incubation, LPS 1 ug/mL 18 hours, 10 pt, read-out: IL23-p19 ELISA, THP1-IFNy, LPS, 10 pt EC50
Summary of the method: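 THP-1 cells (50K/well) primed ~18 h with IFNγ (50 ng/mL) in RPMI/10% FBS, then incubated with compound in duplicate for 18 h at 37° C. Supernatant IL-23p19 measured by chemiluminescent sandwich ELISA, giving EC50 by curve fitting. Toxicity assessed in parallel on the remaining cells by Cell Titer Glo.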

[2] = tested on: IL-23 (p19/p40); test: IL23-p19 ELISA, dendritic cells (DC differentiated from human PBMC, IFNγ primed), LPS stimulated; assay type: cell-based; details: Dendritic cell, human PBMC-derived dendritic cells, 1 h compound pre-incubation, LPS 1 μg/ml 18 hours, 10 pt
Summary of the method: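 PBMC-derived DCs (GM-CSF 100 ng/ml + IL-4 20 ng/ml, 7 days) primed 24 h with IFNγ 50 ng/ml, 50K cells/well; compound pre-incubated 1 h at 37° C, then LPS, 18 h. Supernatant IL-23 by p19-capture/p40-detection chemiluminescent ELISA; cytotoxicity by Cell Titer Glo.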

O=C(Nc1cn(C2COC2)nc1-c1ccccn1)c1cccc(-c2cncc(F)c2)n1 [Compound I-131, 5′-fluoro-N-(1-(oxetan-3-yl)-3-(pyridin-2-yl)-1H-pyrazol-4-yl)-[2,3′-bipyridine]-6-carboxamide]
EC50 ([1]; THP-1, THP-1 cells): 6620 nM
EC50 [2]: 12800 nM

Cn1cc(NC(=O)c2cccc(-c3cccnc3)n2)c(-c2cnccn2)n1 [Compound I-101, N-(1-methyl-3-(pyrazin-2-yl)-1H-pyrazol-4-yl)-[2,3′-bipyridine]-6-carboxamide]
EC50 ([1]; THP-1, THP-1 cells): 14500 nM
EC50 [2]: 1830 nM

Cn1cc(NC(=O)c2cccc(-c3cn[nH]c3)n2)c(-c2ccccn2)n1 [Compound I-9, N-(1-methyl-3-(pyridin-2-yl)-1H-pyrazol-4-yl)-6-(1H-pyrazol-4-yl)picolinamide]
EC50 ([1]; THP-1, THP-1 cells): 281 nM
EC50 [2]: 178 nM

Cn1cc(NC(=O)c2cccc(-c3cncc(NCC(F)(F)F)c3)n2)c(-c2ccccn2)n1 [Compound I-33, N-(1-methyl-3-(pyridin-2-yl)-1H-pyrazol-4-yl)-5′-((2,2,2-trifluoroethyl)amino)-[2,3′-bipyridine]-6-carboxamide]
EC50 ([1]; THP-1, THP-1 cells): 3160 nM
EC50 [2]: 1020 nM

COCCOCCn1cc(NC(=O)c2cccc(-c3cnn(-c4cccc(Cl)c4)c3)n2)c(-c2ccccn2)n1 [Compound I-148, 6-(1-(3-chiorophenyl)-1H-pyrazol-4-yl)-N-(1-(2-(2-methoxyethoxy)ethyl)-3-(pyridin-2-yl)-1H-pyrazol-4-yl)picolinamide formate]
EC50 ([1]; THP-1, THP-1 cells): 4500 nM
EC50 [2]: 6280 nM

Cc1cncc(-c2cccc(C(=O)Nc3cn(C4CCOCC4)nc3-c3ccccn3)n2)c1 [Compound I-164, 5′-methyl-N-(3-(pyridin-2-yl)-1-(tetrahydro-2H-pyran-4-yl)-1H-pyrazol-4-yl)-[2,3′-bipyridine]-6-carboxamide]
EC50 ([1]; THP-1, THP-1 cells): 1370 nM
EC50 [2]: 2890 nM

COCCOCCn1cc(NC(=O)c2cccc(-c3ccnc(OC)c3)n2)c(-c2ccccn2)n1 [Compound I-141, 2′-methoxy-N-(1-(2-(2-methoxyethoxy)ethyl)-3-(pyridin-2-yl)-1H-pyrazol-4-yl)-[2,4′-bipyridine]-6-carboxamide formate]
EC50 ([1]; THP-1, THP-1 cells): 8430 nM
EC50 [2]: 2840 nM

COc1ccc(-c2nn(C)cc2NC(=O)c2cccc(-c3cncc(C)c3)n2)nc1 [Compound I-69, N-(3-(5-methoxypyridin-2-yl)-1-methyl-1H-pyrazol-4-yl)-5′-methyl-[2,3′-bipyridine]-6-carboxamide]
EC50 ([1]; THP-1, THP-1 cells): 1200 nM
EC50 [2]: 1500 nM

O=C(Nc1cn(C2COC2)nc1-c1ccccn1)c1cccc(-c2cn[nH]c2)n1 [Compound I-116, N-(1-(oxetan-3-yl)-3-(pyridin-2-yl)-1H-pyrazol-4-yl)-6-(1H-pyrazol-4-yl)picolinamide]
EC50 ([1]; THP-1, THP-1 cells): 212 nM
EC50 [2]: 142 nM

Cn1cc(NC(=O)c2cccc(C3=CCCNC3)n2)c(-c2ccccn2)n1 [Compound I-65, N-(1-methyl-3-(pyridin-2-yl)-1H-pyrazol-4-yl)-1′,2′,5′,6′-tetrahydro-[2,3′-bipyridine]-6-carboxamide]
EC50 ([1]; THP-1, THP-1 cells): 77200 nM
EC50 [2]: 7880 nM

O=C(Nc1cn(CCO)nc1-c1ccccn1)c1cccc(-c2ccncc2)n1 [Compound I-108, N-(1-(2-hydroxyethyl)-3-(pyridin-2-yl)-1H-pyrazol-4-yl)-[2,4′-bipyridine]-6-carboxamide formate]
EC50 ([1]; THP-1, THP-1 cells): 5960 nM
EC50 [2]: 4920 nM

COc1cncc(-c2cccc(C(=O)Nc3cn(C)nc3-c3ccccn3)n2)c1 [Compound I-19, 5′-methoxy-N-(1-methyl-3-(pyridin-2-yl)-1H-pyrazol-4-yl)-[2,3′-bipyridine]-6-carboxamide]
EC50 ([1]; THP-1, THP-1 cells): 2540 nM
EC50 [2]: 5630 nM

O=C(Nc1cn(CCN2CCOCC2)nc1-c1ccccn1)c1cccc(-c2cn[nH]c2)n1 [Compound I-83, N-(1-(2-morpholinoethyl)-3-(pyridin-2-yl)-1H-pyrazol-4-yl)-6-(1H-pyrazol-4-yl)picolinamide]
EC50 ([1]; THP-1, THP-1 cells): 2010 nM
EC50 [2]: 82700 nM

Cc1cncc(-c2cncc(C(=O)Nc3cn(C)nc3-c3ccccn3)n2)c1 [Compound I-121, N-(1-methyl-3-(pyridin-2-yl)-1H-pyrazol-4-yl)-6-(5-methylpyridin-3-yl)pyrazine-2-carboxamide]
EC50 ([1]; THP-1, THP-1 cells): 1070 nM
EC50 [2]: 1810 nM

Cc1cncc(-c2cccc(C(=O)Nc3cn(C)nc3-c3ccc(N4CCN(C)CC4)cn3)n2)c1 [Compound I-177, 5′-methyl-N-(1-methyl-3-(5-(4-methylpiperazin-1-yl)pyridin-2-yl)-1H-pyrazol-4-yl)-[2,3′-bipyridine]-6-carboxamide dihydrochloride]
EC50 ([1]; THP-1, THP-1 cells): 21700 nM
EC50 [2]: 12200 nM

Cc1cc(-c2cccc(C(=O)Nc3cn(C4COC4)nc3-c3ccccn3)n2)[nH]n1 [Compound I-136, 6-(3-methyl-1H-pyrazol-5-yl)-N-(1-(oxetan-3-yl)-3-(pyridin-2-yl)-1H-pyrazol-4-yl)picolinamide]
EC50 ([1]; THP-1, THP-1 cells): 469 nM
EC50 [2]: 198 nM

Cn1cc(-c2cccc(C(=O)Nc3cn(C4COC4)nc3-c3ccccn3)n2)cn1 [Compound I-134, 6-(1-methyl-1H-pyrazol-4-yl)-N-(1-(oxetan-3-yl)-3-(pyridin-2-yl)-1H-pyrazol-4-yl)picolinamide]
EC50 ([1]; THP-1, THP-1 cells): 1260 nM
EC50 [2]: 2200 nM

Cn1cc(NC(=O)c2cccc(-c3cc[nH]n3)n2)c(-c2ccc(OC3COC3)cn2)n1 [Compound I-183, N-(1-methyl-3-(5-(oxetan-3-yloxy)pyridin-2-yl)-1H-pyrazol-4-yl)-6-(1H-pyrazol-3-yl)picolinamide]
EC50 ([1]; THP-1, THP-1 cells): 96.1 nM
EC50 [2]: 216 nM

CS(=O)(=O)Nc1cncc(-c2cccc(C(=O)Nc3cn(C4COC4)nc3-c3ccccn3)n2)c1 [Compound I-119, sodium (methylsulfonyl)(6-((1-(oxetan-3-yl)-3-(pyridin-2-yl)-1H-pyrazol-4-yl)carbamoyl)-[2,3′-bipyridine]-5′-yl)amide]
EC50 ([1]; THP-1 cells): 1020 nM
EC50 ([2]; Homo sapiens): 1000 nM

Cc1n[nH]cc1-c1cccc(C(=O)Nc2cn(C)nc2-c2ccccn2)n1 [Compound I-78, 6-(3-methyl-1H-pyrazol-4-yl)-N-(1-methyl-3-(pyridin-2-yl)-1H-pyrazol-4-yl)picolinamide]
EC50 ([1]; THP-1, THP-1 cells): 643 nM
EC50 [2]: 832 nM

O=C(Nc1cn(C2COC2)nc1-c1ccccn1)c1cccc(Br)n1 [Compound I-113, 6-bromo-N-(1-(oxetan-3-yl)-3-(pyridin-2-yl)-1H-pyrazol-4-yl)picolinamide]
EC50 ([1]; THP-1, THP-1 cells): 8040 nM
EC50 [2]: 10900 nM

CC(C)n1cc(NC(=O)c2cccc(-c3cn[nH]c3)n2)c(-c2ccccn2)n1 [Compound I-80, N-(1-isopropyl-3-(pyridin-2-yl)-1H-pyrazol-4-yl)-6-(1H-pyrazol-4-yl)picolinamide]
EC50 ([1]; THP-1, THP-1 cells): 2390 nM
EC50 [2]: 8790 nM
